According to the supplement of paper PMC10307832:

What was measured:
Test in all cases: relative viability (nuclei count vs DMSO), 5 days (fraction); higher = more cells survive
[1] = compound: C1=CC=C2C(=C1)N=C(S2)C(C#N)C3=NC(=NC=C3)NCCC4=CN=CC=C4 + C[C@]1(O)C[C@@H](c2nc(-c3ccc4ccc(-c5ccccc5)nc4c3)c3c(N)nccn32)C1 [Linsitinib] (partner 1 µM)
In short: (§1)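 Lung cancer cell lines were seeded in 1536-well plates and dosed by pin tool the next day, with either a single drug or a fixed anchor-drug dose combined with five library-drug doses (not always all listed) spaced in √10 steps. Five days later, one step fixed the cells and stained their nuclei (final 0.05% Triton X-100, 1% formaldehyde, 1 ug/ml Hoechst), and nuclei were counted on 4× images. Relative viability is the nuclei count in treated wells divided by the count in vehicle wells, and each value is the median of duplicate plates.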

NVP-TAE684 + Tozasertib = compound: COc1cc(N2CCC(N3CCN(C)CC3)CC2)ccc1Nc1ncc(Cl)c(Nc2ccccc2S(=O)(=O)C(C)C)n1 [NVP-TAE684] + Cc1cc(Nc2cc(N3CCN(C)CC3)nc(Sc3ccc(NC(=O)C4CC4)cc3)n2)n[nH]1 [Tozasertib] (partner 0.1 µM)
In short: as §1

Vandetanib + Navitoclax = compound: COc1cc2/c(=N/c3ccc(Br)cc3F)nc[nH]c2cc1OCC1CCN(C)CC1 [Vandetanib] + CC1(C)CCC(c2ccc(Cl)cc2)=C(CN2CCN(c3ccc(C(=O)NS(=O)(=O)c4ccc(N[C@H](CCN5CCOCC5)CSc5ccccc5)c(S(=O)(=O)C(F)(F)F)c4)cc3)CC2)C1 [Navitoclax] (partner 0.5 µM)
In short: as §1

Vandetanib + Linsitinib = compound: COc1cc2/c(=N/c3ccc(Br)cc3F)nc[nH]c2cc1OCC1CCN(C)CC1 [Vandetanib] + C[C@]1(O)C[C@@H](c2nc(-c3ccc4ccc(-c5ccccc5)nc4c3)c3c(N)nccn32)C1 [Linsitinib] (partner 1 µM)
In short: as §1

Row | Cell Line | relative viability ([1]; first compound 0.005 µM) | relative viability ([1]; first compound 0.01581 µM) | relative viability ([1]; first compound 0.05 µM) | relative viability ([1]; first compound 0.1581 µM) | relative viability ([1]; first compound 0.5 µM) | relative viability (NVP-TAE684 + Tozasertib; first compound 0.2 µM) | relative viability (NVP-TAE684 + Tozasertib; first compound 0.6325 µM) | relative viability (NVP-TAE684 + Tozasertib; first compound 2 µM) | relative viability (Vandetanib + Navitoclax; first compound 0.02 µM) | relative viability (Vandetanib + Navitoclax; first compound 0.06325 µM) | relative viability (Vandetanib + Navitoclax; first compound 0.2 µM) | relative viability (Vandetanib + Navitoclax; first compound 0.6325 µM) | relative viability (Vandetanib + Navitoclax; first compound 2 µM) | relative viability (Vandetanib + Linsitinib; first compound 0.02 µM) | relative viability (Vandetanib + Linsitinib; first compound 0.06325 µM) | relative viability (Vandetanib + Linsitinib; first compound 0.2 µM) | relative viability (Vandetanib + Linsitinib; first compound 0.6325 µM) | relative viability (Vandetanib + Linsitinib; first compound 2 µM)
1 | COR-L23 | 0.483 | 1.14 | 1.01 | 1.06 | 0.682 | 0.197 | 0.223 | 0.138 | 0.95 | 0.915 | 0.114 | 1.07 | 0.954 | 0.757 | 0.688 | 0.131 | 0.919 | 0.955
2 | NCI-H1734 | 0.779 | 0.939 | 0.881 | 0.946 | 0.797 | 0.283 | 0.261 | 0.196 | 0.854 | 0.766 | 0.801 | 0.804 | 0.818 | 0.849 | 0.891 | 0.849 | 0.89 | 0.848
3 | NCI-H2405 | 0.817 | 0.889 | 0.847 | 0.911 | 1.01 | 0.742 | 0.664 | 0.35 | 0.786 | 0.426 | 0.889 | 1.23 | 0.696 | 0.901 | 0.552 | 0.959 | 1.01 | 0.665
4 | NCI-H2087 | 1.03 | 0.954 | 1.07 | 1.1 | 0.915 | 0.22 | 0.262 | 0.166 | 1.02 | 0.832 | 0.948 | 1.16 | 1.08 | 0.918 | 1.03 | 0.831 | 0.922 | 0.911
5 | NCI-H1793 | 0.782 | 0.956 | 0.886 | 1.25 | 0.87 | 0.346 | 0.323 | 0.25 | 0.57 | 0.338 | 0.488 | 0.319 | 0.389 | 0.87 | 0.74 | 0.819 | 0.897 | 0.587
6 | NCI-H2085 | 0.694 | 0.978 | 0.867 | 1.04 | 0.839 | 0.803 | 0.781 | 0.379 | 1.23 | 1.07 | 1.12 | 1.03 | 1 | 1.01 | 0.837 | 0.855 | 0.945 | 0.793
7 | NCI-H2023 | 0.743 | 0.695 | 0.68 | 0.671 | 0.701 | 0.413 | 0.332 | 0.103 | 0.898 | 0.971 | 1.04 | 1.01 | 0.996 | 0.698 | 0.607 | 0.676 | 0.589 | 0.485
8 | SW 1573 | 0.725 | 0.776 | 0.792 | 0.895 | 0.745 | 0.216 | 0.16 | 0.139 | 1.03 | 0.895 | 1.25 | 0.862 | 0.993 | 0.832 | 0.777 | 0.749 | 0.741 | 0.794
9 | NCI-H3122 | 1.02 | 0.992 | 1.04 | 1.07 | 0.999 | 0.156 | 0.091 | 0.118 | 0.99 | 0.998 | 1.03 | 0.994 | 1.03 | 1.01 | 0.946 | 0.957 | 0.964 | 0.993
10 | NCI-H441 | – | 0.499 | 0.533 | 0.617 | 0.447 | 0.608 | 0.554 | 0.266 | 0.627 | 0.529 | 0.754 | 0.368 | 0.578 | 0.597 | 0.538 | 0.498 | 0.592 | 0.472
11 | NCI-H596 | 0.921 | 1.12 | 1.05 | 1.15 | 0.951 | 1.17 | 0.883 | 0.861 | 0.942 | 0.976 | 1.05 | 0.94 | 0.795 | 1.04 | 0.942 | 1.11 | 0.956 | 0.972
12 | PC-3 [JPC-3] | 0.898 | 0.983 | 0.957 | 0.942 | 0.965 | 0.926 | 0.86 | 0.584 | 0.783 | 0.738 | 0.777 | 0.719 | 0.451 | 0.946 | 0.882 | 0.963 | 0.876 | 0.522
13 | NCI-H1993 | 0.861 | 0.784 | 0.749 | 0.749 | 0.681 | 0.626 | 0.543 | 0.476 | 0.932 | 0.942 | 0.853 | 0.838 | 0.789 | 0.803 | 0.639 | 0.662 | 0.762 | 0.675
14 | NCI-H1355 | 0.764 | 0.849 | 0.847 | 1.05 | 0.714 | 0.521 | 0.471 | 0.301 | 0.931 | 0.809 | 0.577 | 1.01 | 1.03 | 0.732 | 0.732 | 0.551 | 0.812 | 0.755
15 | NCI-H23 | – | 0.685 | 0.583 | 0.85 | 0.533 | 0.402 | 0.367 | 0.241 | 0.782 | 0.8 | 0.769 | 0.914 | 0.688 | 0.685 | 0.531 | 0.519 | 0.57 | 0.425
16 | CAL-12T | 0.76 | 0.781 | 0.671 | 0.991 | 0.839 | 0.278 | 0.315 | 0.117 | 1.22 | 1.19 | 1.37 | 1.28 | 1.13 | 0.874 | 0.774 | 0.923 | 0.781 | 0.647
17 | HCC-44 | 0.655 | 0.724 | 0.696 | 0.666 | 0.65 | 1 | 0.848 | 0.338 | 1.05 | 1.02 | 0.93 | 0.976 | 0.947 | 0.642 | 0.64 | 0.753 | 0.724 | 0.688
18 | NCI-H1755 | 0.968 | 1.05 | 0.976 | 1.07 | 0.908 | 0.601 | 0.585 | 0.473 | 1.03 | 0.979 | 0.968 | 0.973 | 0.972 | 0.985 | 0.939 | 0.922 | 0.974 | 0.936
19 | SK-LU-1 | – | 1.08 | 1.01 | 1.47 | 1.07 | 0.333 | 0.305 | 0.216 | 0.954 | 0.571 | 0.794 | 0.953 | 0.789 | 1.05 | 0.759 | 0.896 | 1.12 | 1.12
20 | NCI-H2126 | 0.748 | 0.739 | 0.705 | 0.705 | 0.665 | 0.96 | 0.764 | 0.407 | 0.865 | 0.859 | 0.84 | 0.866 | 0.727 | 0.67 | 0.728 | 0.73 | 0.765 | 0.647
21 | 201T | 1.07 | 1.01 | 1.06 | 1.06 | 0.974 | 0.925 | 0.942 | 0.536 | 1.1 | 1.19 | 1.2 | 1.15 | 1.19 | 1.08 | 0.936 | 0.989 | 0.944 | 1.01
22 | LU99A | 0.517 | 0.517 | 0.553 | 0.611 | 0.553 | 0.298 | 0.293 | 0.206 | 0.794 | 0.73 | 0.734 | 0.679 | 0.761 | 0.487 | 0.529 | 0.599 | 0.522 | 0.55
23 | NCI-H647 | – | 1.17 | 1.16 | 1.25 | 0.976 | 0.0998 | 0.288 | 0.115 | 0.943 | 1.09 | 1.16 | 1.17 | 1.06 | 1.1 | 1.13 | 1.08 | 1.2 | 1.14
24 | LC-2-ad | 0.886 | 0.85 | 0.844 | 0.878 | 0.82 | 0.448 | 0.377 | 0.286 | 0.44 | 0.482 | 0.548 | 0.403 | 0.243 | 0.818 | 0.787 | 0.841 | 0.746 | 0.417
25 | LK-2 | 0.409 | 0.736 | 0.621 | 0.689 | 0.555 | 0.154 | 0.191 | 0.179 | 0.761 | 0.759 | 0.913 | 0.936 | 0.721 | 1.08 | 0.513 | 0.909 | 0.9 | 0.319
26 | NCI-H520 | 0.552 | 0.97 | 0.923 | 1.11 | 0.735 | 0.408 | 0.466 | 0.358 | 0.946 | 1.04 | 1.08 | 1.07 | 1.04 | 0.886 | 1.1 | 0.942 | 0.904 | 0.912
27 | NCI-H1975 | 0.823 | 1.07 | 0.972 | 1.07 | 0.738 | 1.01 | 0.732 | 0.206 | 1.14 | 1.13 | 1.13 | 0.992 | 1.1 | 0.902 | 0.801 | 0.897 | 0.803 | 0.902
